Test results: patent publication US9808527B2, “Methods and compositions for treating HIV infections” (priority 2006, dated 2017)

Tests used:
[1] = molecular target: T1, HIV-1 protease (Human immunodeficiency virus type 1 group M subtype B, UniProt P04585, C555A/C583A/L521I/L551I/Q495K/V491I); experiment: biochemical; format: biochemical
T1 construct: Wild-type PR at final concentrations of 160-190 nM were added
From the text: Enzyme kinetics. The chromogenic substrate Lys-Ala-Arg-Val-Nle-p-nitroPhe-Glu-Ala-Nle-amide (Sigma, St. Louis, Mo.) was used to determine the kinetic parameters (Kovalevsky et al. J Mol Biol 363(1):161-173 (2006), Ghosh et al. J Med Chem 49(17):5252-5261 (2006)). […] The kcat and Km values were obtained employing standard data fitting techniques for a reaction obeying Michaelis-Menten kinetics. The data curves were fitted using SigmaPlot 8.0.2 (SPSS Inc., Chicago, Ill.). The active enzyme concentrations were calculated from the intercept of the linear fit to the IC50 versus [S] plots with the IC50 axis. The Ki values were obtained from the IC50 values estimated from an inhibitor dose-response curve with the spectroscopic assay using the equation Ki=(IC50-[E]/2)/(1+[S]/Km), where [E] and [S] are the PR and substrate concentrations, respectively (Maibaum & Rich J Med Chem 31(34):625-629 (1988)). The Ki values were measured at four to five substrate concentrations. The measurement was repeated at least three times to produce the average values.

[2] = system: HIV-1NL4-3; experiment: In vitro selection of HIV-1 variants resistant to GRL-98065; format: cell-based
From the text: Generation of PI-resistant HIV-1 in vitro. MT-4 cells (10^5/mL) were exposed to HIV-1NL4-3 (500 TCID50) and cultured in the presence of various PIs at an initial concentration of its IC50 values. Viral replication was monitored by determination of the amount of p24 Gag produced by MT-4 cells. The culture supernatants were harvested on day 7 and used to infect fresh MT-4 cells for the next round of culture in the presence of increasing concentrations of each drug. […] Proviral DNA samples obtained from the lysates of infected cells were subjected to nucleotide sequencing. This drug selection procedure was carried out until the drug concentration reached 1 or 5 μM.
The protease-encoding region of the proviral DNA isolated from infected MT-4 cells was cloned and sequenced at passages 5, 10, 15, 20, 25, 30, 33, and 40. […] Met46 is located on the flap region of the enzyme.

[3] = system: HIV-1, HIV-2, and primary HIV-1 strains of different subtypes; experiment: Antiviral activity over Tables 1, 2 and 5 (summary); format: cell-based
Protocol: Drug susceptibility assay. The susceptibility of HIV-1LAI, HIV-2EHO, HIV-2ROD, to various drugs and the cytotoxicity of those drugs was determined by using the MTT assay. Briefly, MT-2 cells (2×10^4/mL) were exposed to 100 TCID50s (50% tissue culture infectious doses) of HIV-1LAI, HIV-2EHO, or HIV-2ROD in the presence or absence of various concentrations of drugs in 96-well microculture plates and were incubated at 37° C. for 7 days. After 100 μL of the medium was removed from each well, 3-(4,5-dimethylthiazol-2-yl)-2,5-diphenyltetrazolium bromide (MTT) solution (10 μL, 7.5 mg/mL in phosphate-buffered saline) was added to each well in the plate, followed by incubation at 37° C. for 4 hours. […] All assays were performed in duplicate or triplicate. […] On day 7 of culture, the supernatant was harvested and the amount of p24 Gag protein was determined by using a fully automated chemiluminescent enzyme immunoassay system (Lumipulse F; Fujirebio Inc., Tokyo, Japan) (22). […]

CC(C)CN(CC(O)C(Cc1ccccc1)NC(=O)OC1COC2OCCC12)S(=O)(=O)c1ccc2c(c1)OCO2 (stereo not shown) [GRL-98065]
Ki [1]: 0.014 nM
fold increase of drug concentration tolerated by selected virus ([2]; 40 passages in MT-4 cells, start 0.0005 μM): 1,000
drug concentration at which selected virus was still propagating ([2]; after 40 passages in MT-4 cells): 0.5 µM
IC50 [3]: 0.2 to 4.5 nM
